Experimental data taken from patent EP4190319A1, “PHARMACEUTICAL COMPOSITION COMPRISING MEMANTINE AND CITICOLINE” (Novamedica Limited Liability Company, priority 2020, dated 2022).

System: rats
Assay: Morris Water Maze test of long-term memory in the model of global transient cerebral ischemia with ligation of common carotid arteries
Assay type: in vivo
Procedure: The comparative study of specific pharmacological activity of the pharmaceutical composition proposed in this invention was conducted by comparison with the citicoline mono-preparation on the model of ischemic stroke in rats. For that purpose, a model of global transient cerebral ischemia with ligation of common carotid arteries was selected on the basis of the Handbook on Conducting Pre-Clinical Studies of Therapeutical Agents, ed. by A.N. Mironov. Long-term memory was evaluated with the use of the Morris Water Maze test (Morris R., "J Neurosci Methods", 1984, Vol. 11, No 1. - P. 47-60 [10]). Table. Effect of the preparations under study on long-term memory in rats in the Morris Water Maze test.

C[N+](C)(C)CCOP(=O)(O)OP(=O)([O-])OC[C@H]1O[C@@H](n2ccc(N)nc2=O)[C@H](O)[C@@H]1O [Citicoline, 5'-O-[hydroxy({hydroxy[2-(trimethylammonio)ethoxy]phosphoryl}oxy)phosphoryl]cytidine]
Latent period of finding platform (mg/kg (citicoline + memantine) 100+0, ischemic stroke model in rats): 20.4 ± 7.6 s
Latent period of finding platform (mg/kg (citicoline + memantine) 500+0, ischemic stroke model in rats): 13.6 ± 3.5 s
Latent period of finding platform (mg/kg (citicoline + memantine) 1,000+0, ischemic stroke model in rats): 10.4 ± 3.5 s

CC12CC3CC(C)(C1)CC(N)(C3)C2 [Memantine, 3,5-dimethyladamantan-1-amine]
Latent period of finding platform (mg/kg (citicoline + memantine) 0+2, ischemic stroke model in rats): 27.1 ± 7.8 s
Latent period of finding platform (mg/kg (citicoline + memantine) 0+10, ischemic stroke model in rats): 14.6 ± 5.2 s
Latent period of finding platform (mg/kg (citicoline + memantine) 0+20, ischemic stroke model in rats): 9.2 ± 1.2 s
